Target: T1, E-selectin (Homo sapiens, UniProt P16581)
T1 sequence (P16581 whole entry): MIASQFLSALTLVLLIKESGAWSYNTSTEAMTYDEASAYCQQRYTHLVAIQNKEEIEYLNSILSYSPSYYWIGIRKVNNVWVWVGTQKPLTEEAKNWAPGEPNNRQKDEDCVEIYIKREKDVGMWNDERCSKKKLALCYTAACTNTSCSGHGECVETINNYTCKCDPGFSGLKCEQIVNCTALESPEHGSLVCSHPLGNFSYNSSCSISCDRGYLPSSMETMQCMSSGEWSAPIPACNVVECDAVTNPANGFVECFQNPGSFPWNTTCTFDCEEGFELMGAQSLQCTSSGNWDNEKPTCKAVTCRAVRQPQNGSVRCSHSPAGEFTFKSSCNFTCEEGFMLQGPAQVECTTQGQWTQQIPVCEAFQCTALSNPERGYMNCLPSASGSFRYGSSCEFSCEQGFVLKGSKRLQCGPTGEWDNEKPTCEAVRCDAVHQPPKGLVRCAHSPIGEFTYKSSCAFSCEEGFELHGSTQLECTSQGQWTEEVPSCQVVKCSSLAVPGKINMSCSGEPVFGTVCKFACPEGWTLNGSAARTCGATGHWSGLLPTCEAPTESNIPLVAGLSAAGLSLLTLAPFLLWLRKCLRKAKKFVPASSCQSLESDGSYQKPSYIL
Assay: Compound was evaluated for the Selectin E binding activity.

- IC50: > 10 µM
SMILES: CC(=O)N[C@H]1[C@H]([C@H](O)[C@H](O)CO)O[C@@](O[C@H]2[C@@H](O)[C@@H](CO)O[C@@H](O[C@@H]([C@H](O[C@@H]3O[C@@H](C)[C@@H](O)[C@@H](O)[C@@H]3O)[C@H](C=O)NC(C)=O)[C@H](O)CO)[C@@H]2O)(C(=O)O)C[C@@H]1O [SIALYL LEWIS X]
